Reference: PubChem BioAssay (NCI)
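Five concentrations, 48 hours, 96-well plates. TGI marks complete inhibition of growth.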

How the values were obtained:
Assay in all cases: NCI tumour cell line growth inhibition, 48 h
[1] = system: 786-0 renal
[2] = system: A498 renal
[3] = system: A549 NSCLC
[4] = system: ACHN renal
[5] = system: CAKI-1 renal
[6] = system: CCRF-CEM leukemia
[7] = system: COLO 205 colon
[8] = system: DLD-1 colon
[9] = system: DMS 114 small cell lung
[10] = system: DMS 273 small cell lung
[11] = system: EKVX NSCLC
[12] = system: HCC-2998 colon
[13] = system: HCT-116 colon
[14] = system: HCT-15 colon
[15] = system: HL-60(TB) leukemia
[16] = system: HOP-18 NSCLC
[17] = system: HOP-62 NSCLC
[18] = system: HOP-92 NSCLC
[19] = system: HT29 colon
[20] = system: IGROV1 ovarian
[21] = system: K-562 leukemia
[22] = system: KM12 colon
[23] = system: KM20L2 colon
[24] = system: LOX IMVI melanoma
[25] = system: LXFL 529 NSCLC
[26] = system: M14 melanoma
[27] = system: M19-MEL melanoma
[28] = system: MALME-3M melanoma
[29] = system: MOLT-4 leukemia
[30] = system: NCI-H226 lung
[31] = system: NCI-H23 lung
[32] = system: NCI-H460 lung
[33] = system: NCI-H522 lung
[34] = system: OVCAR-3 ovarian
[35] = system: OVCAR-4 ovarian
[36] = system: OVCAR-5 ovarian
[37] = system: OVCAR-8 ovarian
[38] = system: RPMI-8226 leukemia
[39] = system: RXF 393 renal
[40] = system: RXF-631 renal
[41] = system: SF-268 CNS
[42] = system: SF-295 CNS
[43] = system: SF-539 CNS
[44] = system: SK-MEL-2 melanoma
[45] = system: SK-MEL-28 melanoma
[46] = system: SK-MEL-5 melanoma
[47] = system: SK-OV-3 ovarian
[48] = system: SN12C renal
[49] = system: SNB-19 CNS
[50] = system: SNB-75 CNS
[51] = system: SNB-78 CNS
[52] = system: SR leukemia
[53] = system: SW-620 colon
[54] = system: TK-10 renal
[55] = system: U251 CNS
[56] = system: UACC-257 melanoma
[57] = system: UACC-62 melanoma
[58] = system: UO-31 renal
[59] = system: XF 498 CNS

`COc1ccc(COC2CC(OC)OC(C)C2OC(=O)c2ccccc2)cc1` (centres undefined) was tested, and the TGI [1] was > 100 µM, the TGI [2] was > 100 µM and the TGI [3] was > 100 µM. The TGI [4] was > 88.4 µM, the TGI [5] was > 100 µM and the TGI [6] was > 100 µM. For the same compound, the TGI [7] was > 95 µM, the TGI [8] was > 91.8 µM and the TGI [9] was 81.5 µM. The TGI [10] was > 100 µM, the TGI [11] was > 100 µM and the TGI [12] was > 100 µM. For the same compound, the TGI [13] was > 84 µM, the TGI [14] was > 59.5 µM and the TGI [15] was 49.7 µM. For the same compound, the TGI [16] was > 100 µM, the TGI [17] was > 100 µM and the TGI [18] was > 100 µM. For the same compound, the TGI [19] was 39.6 µM, the TGI [20] was > 100 µM and the TGI [21] was > 100 µM. The TGI [22] was > 100 µM, the TGI [23] was 32.9 µM and the TGI [24] was 67.9 µM. For the same compound, the TGI [25] was > 81.8 µM, the TGI [26] was > 100 µM and the TGI [27] was > 91.1 µM. For the same compound, the TGI [28] was > 71.3 µM, the TGI [29] was 40.1 µM and the TGI [30] was 65.9 µM. The TGI [31] was > 92.6 µM, the TGI [32] was > 100 µM and the TGI [33] was > 93.5 µM. For the same compound, the TGI [34] was > 95 µM, the TGI [35] was > 100 µM and the TGI [36] was > 94.7 µM. For the same compound, the TGI [37] was > 100 µM, the TGI [38] was 46.7 µM and the TGI [39] was > 96.6 µM. For the same compound, the TGI [40] was > 100 µM, the TGI [41] was > 100 µM and the TGI [42] was > 100 µM. For the same compound, the TGI [43] was > 100 µM, the TGI [44] was > 100 µM and the TGI [45] was > 100 µM. For the same compound, the TGI [46] was 31.9 µM, the TGI [47] was > 100 µM and the TGI [48] was > 100 µM. For the same compound, the TGI [49] was > 100 µM, the TGI [50] was > 100 µM and the TGI [51] was > 100 µM. For the same compound, the TGI [52] was 58.2 µM, the TGI [53] was > 100 µM and the TGI [54] was > 100 µM. The TGI [55] was > 100 µM, the TGI [56] was > 100 µM and the TGI [57] was > 100 µM. For the same compound, the TGI [58] was 70.7 µM and the TGI [59] was 49.4 µM.
